{"source": "a melting point compilation (Tetko et al.; mined from patent text by program, amines drawn as free bases though some values may be those of a salt)"}
{"units": {"melting point": "°C"}}
{"smiles": "O=C(O)CNC(=O)Cc1ccc(Cl)cc1S", "melting point": "148 to 149"}
{"smiles": "CC(=O)c1ccc2ccccc2c1OCCCC(=O)O", "melting point": 104}
{"smiles": "CCCOC(=O)c1c(CSc2nccn2C)nc2cc(OC)c(OC)cc2c1-c1ccc(OC)c(OC)c1", "melting point": "131 to 132"}
{"smiles": "Cc1ccc(C(O)CCCO)cc1", "note": "(stereo unspecified)", "melting point": "43 to 47"}
{"smiles": "Cc1ccc(C(=O)n2nc(Nc3ccc(O)cc3)nc2N)cc1", "melting point": "221 to 223"}
{"smiles": "COC1=N/C(=C\\c2c[nH]c3ncc(Cl)cc23)C(=O)N1c1ccccc1", "melting point": 228}
{"smiles": "N#Cc1ccc(COc2ccc(C(=O)NC[C@@H](C(=O)NO)N3CCCCC3)cc2)cc1", "melting point": 134}
{"smiles": "CSc1snc(C(F)(F)F)c1C(=O)O", "melting point": "260 to 262"}
{"smiles": "COc1ccc2nc3cc(OC)c(=O)cc-3sc2c1", "melting point": "237 to 238"}
{"smiles": "O=C(O)CCC[C@@H](O)[C@@H](CCc1ccccc1)S(=O)(=O)c1ccccc1", "note": "(relative stereo)", "melting point": "100 to 102"}
{"smiles": "CN1CCC(=C2c3ccccc3C=Cc3ccc(Br)cc32)CC1", "melting point": "189 to 190"}
{"smiles": "CCCCCCCCc1ccc(CCC(CC)(CCOC(C)=O)NC(C)=O)cc1", "note": "(stereo unspecified)", "melting point": "108 to 110"}
{"smiles": "Nc1cc(=O)n(Cc2c(Cl)cccc2Cl)[nH]1", "melting point": 225}
{"smiles": "CCCCNc1cc(CNC(C)=O)cc(S(N)(=O)=O)c1Oc1ccccc1", "melting point": "190 to 191"}
{"smiles": "CCNc1cccc(NC(=O)COC(C)=O)c1C#N", "melting point": "110 to 113"}
{"smiles": "COC(=O)[C@H](Cc1ccc(O)cc1)NC(=O)C1(NC(=O)[C@@H](SC(C)=O)C(C)C)CCCC1", "melting point": "157 to 158"}
{"smiles": "CCCN1CCC(Cc2ccc3c(c2)c(Cc2ccc(C(=O)O)cc2OC)cn3CCC)C1=O", "note": "(stereo unspecified)", "melting point": "75 to 86"}
{"smiles": "CCS(=O)(=O)Nc1cc(-n2nc3n(c2=O)CCCS3)c(F)cc1C#N", "melting point": "193 to 195"}
{"smiles": "Nn1c(=O)c(=O)[nH]c2ccc3ccc([N+](=O)[O-])cc3c21", "melting point": "> 240"}
{"smiles": "CSC(=S)NN=Cc1nc(C)[nH]c1C", "melting point": "279 to 281"}
{"smiles": "CC(C)(C)[Si](C)(C)Oc1ccc2c(c1)OC(O)c1c-2sc2cc(O[Si](C)(C)C(C)(C)C)ccc12", "note": "(stereo unspecified)", "melting point": "162 to 164"}
{"smiles": "O=c1[nH]c2ccc(Cl)cc2c2cc(CO)nn12", "melting point": "316 to 318"}
{"smiles": "CC(C)(Cc1ccccc1)Nc1c(NCc2cc3cc(C#N)ccc3o2)c(=O)c1=O", "melting point": "233 to 235"}
{"smiles": "CC12CC(C)(C1)C(=O)N(C(C)(C)C)C2=O", "melting point": "65 to 65.5"}
{"smiles": "CC(C)(O)c1ccc(-c2nn(Cc3ccccc3)c3ccccc23)o1", "melting point": "124 to 127"}
{"smiles": "Cc1oc2cc(C(CC(=O)O)CC(=O)O)ccc2c1C", "melting point": "190 to 192"}
{"smiles": "COc1ccccc1N1CCN(CCCNC(=O)c2cccc3c(=O)c(O)c(-c4ccccc4)oc23)CC1", "melting point": "196 to 199"}
{"smiles": "COC(=O)C1CCc2nc(N)sc2C1", "note": "(stereo unspecified)", "melting point": "148 to 168"}
{"smiles": "COc1cc(OCc2ccccn2)ccc1C=CC(=O)CC(C)=O", "melting point": "81 to 82"}
{"smiles": "CC(=O)OC1CSC(Oc2cccnc2-c2ccc(F)cc2)C(OC(C)=O)C1OC(C)=O", "note": "(stereo unspecified)", "melting point": 149}
{"smiles": "CSc1ccc(C(=O)CC(=O)C2CC2)c2c1OC(F)(F)O2", "melting point": "46 to 47"}
{"smiles": "COc1ccccc1-n1c(=O)[nH]c2c(C(N)=O)nc(-c3cccc(C(=O)O)c3)nc21", "melting point": "348 to 350"}
{"smiles": "Nc1cccc(C(=O)Nc2ccc(-c3ccc(C(=O)N4CCN5CCC4CC5)o3)cc2)c1", "melting point": "249 to 252"}
{"smiles": "CCCn1c(=O)[nH]c2c(C)ccc(OCC(O)CN3CCC(COc4ccccc4)CC3)c21", "note": "(stereo unspecified)", "melting point": "91 to 93"}
{"smiles": "O=C(Nc1ccc(C(F)(F)F)cc1)C12CC3CC(CC(C3)C1)C2", "melting point": "189 to 193"}
{"smiles": "Cc1ccc2c(c1)N=C(N1CCN(C)CC1)c1cc(Br)cc3ccn-2c13", "melting point": "153 to 155"}
{"smiles": "CCc1noc(C)c1-c1[nH]c2ccccc2c1C(=O)CCN(C)C", "melting point": "146 to 148"}
{"smiles": "CC/C(=C(/c1ccc(O)cc1)c1ccc(OCCN(C)C)cc1)c1ccc(C(C)C)cc1", "melting point": "95 to 96"}
{"smiles": "COc1ccc(-n2c(=O)cc(C)c3c(=O)n(-c4ccccc4)[nH]c32)cc1", "melting point": "189 to 190"}
{"smiles": "O=c1[nH]c2ccccc2c2nc(-c3ccc(Cl)cc3)nn12", "melting point": "315 to 318"}
{"smiles": "CC(=O)NNc1c(C)cnc2c(NC(=O)c3c(Cl)cccc3Cl)cccc12", "melting point": "249 to 254"}
{"smiles": "CN1C(=O)CN=C(c2cccc(Cl)c2)c2cc(C(O)(c3ccc(Cl)cc3)c3cncn3C)ccc21", "note": "(stereo unspecified)", "melting point": 226}
{"smiles": "CCCCCN1CC[C@@H](c2ccccc2Br)[C@H](CO)C1", "note": "(racemic)", "melting point": "119 to 120"}
{"smiles": "CC(C)Oc1ccc(N2CCCN(c3cc[nH]c(=S)c3C#N)CC2)cc1", "melting point": "216 to 218"}
{"smiles": "C/C(=C(\\C#N)C(=S)/N=C/N(C)C)N1CCCN(c2ccc3c(c2)OCCO3)CC1", "melting point": "127 to 129"}
{"smiles": "COC(=O)c1ccc2cc(C(=O)c3ccc4c(c3)C3(C)C5(C)CCC(C5)C3(C)O4)ccc2c1", "note": "(stereo unspecified)", "melting point": 146}
{"smiles": "O=C1C(=O)c2ccccc2C2=C1SCC1(CCN(CC(O)COc3ccccc3)CC1)O2", "note": "(stereo unspecified)", "melting point": "174 to 176"}
{"smiles": "Cc1cccc(C#CC2=CC(=NO)CCC2)n1", "melting point": "166 to 168"}
{"smiles": "CC=Cc1cc(OC)cc2cc(-c3ccc(OC)cc3)oc12", "melting point": "116 to 118"}
{"smiles": "O=C(O)c1ccc(N2C(=O)c3ccc([N+](=O)[O-])cc3C2=O)cc1", "melting point": "331 to 332"}
{"smiles": "CCCCCCCCCCc1c(C(=O)O)sc2c1sc1c(CCCCCCCCCC)c(C(=O)O)sc12", "melting point": 280}
{"smiles": "O=c1oc2c(c(O)c1C(c1ccccc1)C1CC1)CCCCCC2CC1CCCCO1", "note": "(stereo unspecified)", "melting point": "88 to 93"}
{"smiles": "CC(=O)NCCc1coc2ccc(OCC#N)cc12", "melting point": "72 to 73"}
{"smiles": "O=S1(=O)C=C(N2CCCCC2)c2ccccc2O1", "melting point": "187 to 189"}
{"smiles": "COC(c1ccccc1)C1CCCCCC(Cc2ccccc2)C1=O", "note": "(stereo unspecified)", "melting point": "83 to 84"}
{"smiles": "Nc1ncc(-c2cccc(Nc3ccc(-c4ccco4)cc3[N+](=O)[O-])c2)cn1", "melting point": "178 to 180"}
{"smiles": "COc1cccc(/C=C(/C(=O)O)c2cc(OC)c(OC)c(OC)c2)c1", "melting point": "68 to 70"}
{"smiles": "Brc1cc(-c2ccncc2)cnc1Br", "melting point": "150 to 155"}
{"smiles": "CCNc1nc(Cl)c(C#N)c(NC(C)C)n1", "melting point": "160 to 165"}
{"smiles": "CC(C)NCC(O)COC1c2ccccc2C(=O)N1c1ccccc1", "note": "(stereo unspecified)", "melting point": 92}
{"smiles": "CCc1cccc2c1[nH]c1c2ccc2cc[nH]c21", "melting point": "256 to 258"}
{"smiles": "Cn1c(-c2ccccc2)c(CCCl)sc1=S", "melting point": 116}
{"smiles": "CC(C)C(=O)N[C@@H](CSC(=O)C(C)C)C(=O)NCCSC(=O)C(C)(C)C", "melting point": "105 to 107"}
{"smiles": "CC1(c2ccc(S(=O)(=O)Cl)cc2)Cc2cc(OCC(=O)O)c(Cl)c(Cl)c2C1=O", "note": "(stereo unspecified)", "melting point": "209 to 210"}
{"smiles": "NC(=O)COc1ccc(CN2C(=O)C3(COc4cc5c(cc43)OCCO5)c3ccccc32)cc1", "note": "(stereo unspecified)", "melting point": "225 to 227"}
{"smiles": "CCCCn1c(=O)c2c(ncn2S(=O)(=O)c2ccc(NO)cc2)n(CCCC)c1=O", "melting point": "148 to 150"}
{"smiles": "CCOc1cc2ncc(C#N)c(Nc3ccc4c(c3)OCO4)c2cc1OCC", "melting point": "200 to 203"}
{"smiles": "CC(=O)Nc1ccc(OC2SCC(O)C(O)C2O)cn1", "note": "(stereo unspecified)", "melting point": 209}
{"smiles": "CCCc1c(C(C)C)nc(C(C)C)c(C(C)O)c1-c1ccc(F)cc1O", "note": "(stereo unspecified)", "melting point": "152 to 153"}
{"smiles": "CCOC(=O)/C=C/c1c2c(nn1-c1ccc(F)cc1)C(Cc1ccccc1)CCC2", "note": "(stereo unspecified)", "melting point": "117 to 118"}
{"smiles": "O=C1c2cccc(NC(=S)Nc3cc[nH]n3)c2C2CC3(CCN12)SCCS3", "note": "(stereo unspecified)", "melting point": 185}
{"smiles": "CC(NC(=O)Cc1cc(F)cc(F)c1)C(=O)NC1C(=O)N(Cc2ccccc2)Cc2ccccc21", "note": "(stereo unspecified)", "melting point": "144 to 145"}
{"smiles": "CC(C)(C)NS(=O)(=O)c1cccc(F)n1", "melting point": "88 to 90"}
{"smiles": "CCCCC(CC)COC(=O)C(C#N)=Cc1ccc(C(=O)O)cc1", "note": "(stereo unspecified)", "melting point": "159 to 162"}
{"smiles": "CCOC(=O)c1cc2n(c1)CN(CCC#N)c1ccccc1-2", "melting point": "102 to 104"}
{"smiles": "CCc1ccc2nc(-c3ccc(-c4ccccc4)cc3)c(N)c(C(=O)O)c2c1", "melting point": "240 to 241"}
{"smiles": "CC(=O)Oc1ccc2c(ccc3ccccc32)c1", "melting point": "141 to 142"}
{"smiles": "Cc1ccc(N2C(=O)C(O)=C(C(=O)c3ccc(C(C)C)cc3)C2c2ccc(OCCN3CCOCC3)cc2)nn1", "note": "(stereo unspecified)", "melting point": 256}
{"smiles": "CCOC(=O)Cn1nc2ccc(Cl)nn2c1=O", "melting point": "114 to 115"}
{"smiles": "CCCN1N=C2C(=Cc3cccc(C(F)(F)F)c3)CS(=O)(=O)CC2C1c1cccc(C(F)(F)F)c1", "note": "(stereo unspecified)", "melting point": "190 to 191"}
{"smiles": "Cc1ccc(S(=O)(=O)Oc2ccc(Cl)c3c2C(=O)c2cnccc2C3=O)cc1", "melting point": "193 to 195"}
{"smiles": "CCOc1cc(-c2cc(C(F)(F)F)n3ncc(-c4nc(-c5ccc(N)nc5)no4)c3n2)ccc1C(F)(F)F", "melting point": 263}
{"smiles": "O=C1c2ccccc2S(=O)(=O)c2cc(C3=NCCN3)ccc21", "melting point": "241 to 242"}
{"smiles": "C[Si](C)(Cc1ccc(N(c2ccccc2)c2ccccc2)cc1)Cc1ccc(N(c2ccccc2)c2ccccc2)cc1", "melting point": "125 to 127"}
{"smiles": "Cn1c(CC(=O)O)cc2c1C(=O)c1sccc1CC2", "melting point": "157 to 158"}
{"smiles": "COc1cc(C)c(C(=O)c2c(Cl)cccc2Cl)c(O)c1O", "melting point": 182}
{"smiles": "OCc1nc2n(c1CO)-c1ccc(Cl)cc1C(c1ccccc1F)=NC2", "melting point": 222}
{"smiles": "CCOC(=O)c1cnc2ncnn2c1Cl", "melting point": "130 to 132"}
{"smiles": "CC1(C)CCCN(CC2(O)CCNCC2)C1", "melting point": "48 to 52"}
{"smiles": "CC(C)c1ccc(N(Cc2ccc(N(C)C)cc2)C(=S)C2CCCc3ccccc32)cc1", "note": "(stereo unspecified)", "melting point": "123 to 125"}
{"smiles": "Nc1ccccc1C(=O)C1CC1", "melting point": "46 to 48"}
{"smiles": "CC(=O)NCC1CN(c2ccc(S(C)=O)c(F)c2)C(=O)O1", "note": "(stereo unspecified)", "melting point": "143 to 145"}
{"smiles": "COC(=O)C(C)(C)C(O)CCOc1cc(C)ccc1C", "note": "(stereo unspecified)", "melting point": "40.5 to 41"}
{"smiles": "CCCc1nc2c(N)nc3c(c2n1CC1(O)CCCC1)NCCC3", "melting point": "207 to 208"}
{"smiles": "C/C(=C\\c1ccc(C2(C)OCCO2)cc1)c1ccc2c(c1)C(C)(C)CCC2(C)C", "melting point": "122 to 123"}
{"smiles": "COc1ccc(-n2nc(C(F)(F)F)cc2CO)cc1", "melting point": 79}
{"smiles": "OC1CSC(Oc2cccc(-c3cccc(Cl)n3)c2)C(O)C1O", "note": "(stereo unspecified)", "melting point": "180 to 222"}
{"smiles": "CCOP(=O)(Cc1cc(=O)[nH]c2cc(Cl)c(Cl)cc12)OCC", "melting point": "219 to 222"}
{"smiles": "COc1ccc(-c2coc3ccc(-c4nnc(S)o4)cc23)cc1", "melting point": "204 to 205"}
{"smiles": "CCn1c(=O)c2[nH]c(/C=C/c3ccc(OC)cc3OC)nc2n(CC)c1=O", "melting point": "279 to 280"}
{"smiles": "CCOC(OCC)c1cc(=O)[nH]c(N)n1", "melting point": "198 to 203"}
